pIC50: −log10 of the molar value. Where two headings read alike, the source gives them in different places.
Columns and labels:
[1] = target: indoleamine 2, 3-dioxygenase (IDO1) (Homo sapiens, UniProt P14902); assay: PBMC IDO1 assay (kynurenine via mass spectrometry); assay type: cell-based; conditions: for IC50: read-out: PBMC PXC50_ (converted)
Outline: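 Human PBMCs (50,000/well) stimulated with IFN-γ 100 ng/ml and LPS 50 ng/ml to induce IDO1, exposed to 11-point 3-fold compound dilutions for 2 days at 37° C. Supernatant kynurenine measured by RapidFire MS relative to internal standard; XC50 from four-parameter fit. Cytotoxicity tracked in parallel by ATP luminescence.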

[2] = tested on: conversion of T cells into CD4+FoxP3+ Tregs; conditions: co-culture of DCs and naive CD4+CD25- T cells; cited from earlier work
PAN02 pancreatic cells = conditions: orally dosed, cited from earlier work
[3] = human PBMC stimulated with IFN-γ and LPS, 2 days, kynurenine by mass spectrometry, recorded as pIC50

Sequence of indoleamine 2, 3-dioxygenase (IDO1) (P14902 whole entry): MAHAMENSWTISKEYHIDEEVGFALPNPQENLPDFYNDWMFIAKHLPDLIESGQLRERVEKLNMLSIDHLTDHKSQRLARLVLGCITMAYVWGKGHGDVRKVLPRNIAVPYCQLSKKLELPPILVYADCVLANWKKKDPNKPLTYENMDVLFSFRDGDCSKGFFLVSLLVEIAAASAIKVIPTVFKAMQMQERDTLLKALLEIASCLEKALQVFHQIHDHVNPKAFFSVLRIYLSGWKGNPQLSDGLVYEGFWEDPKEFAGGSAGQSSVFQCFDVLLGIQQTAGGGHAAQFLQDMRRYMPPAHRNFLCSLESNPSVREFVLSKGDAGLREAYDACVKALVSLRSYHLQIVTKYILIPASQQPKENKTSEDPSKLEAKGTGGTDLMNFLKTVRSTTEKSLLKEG

| IC50 [1, 3] | SMILES | also measured |
| --- | --- | --- |
| 0.631 µM | Cc1c(F)cccc1OC(=O)N1CCC([C@H](C)NC(=O)c2ccc(Cl)s2)CC1 [Example 92, 3-fluoro-2-methylphenyl 4-[(1S)-1-[(5-chlorothiophen-2-yl)formamido]ethyl]piperidine-1-carboxylate] |  |
| 0.794 µM | COc1cc(OC(=O)N2CCC(C(NC(=O)c3ccc(F)cc3)c3ccncc3)CC2)ccn1 (centres unmarked) [Example 93, 2-methoxpyridin-4-yl 4-{[(4-fluorophenyl)formamido](pyridin-4-yl)methyl}piperidine-1-carboxylate] |  |
| 1 µM | C[C@H](NC(=O)c1ccc(Cl)s1)C1CCN(C(=O)Oc2ccccc2)CC1 [Example 95, phenyl 4-[(1S)-1-[(5-chlorothiophen-2-yl)formamido]ethyl]piperidine-1-carboxylate] |  |
| 1.26 µM | O=C(NC(c1ccncc1)C1CCN(C(=O)Oc2ccccn2)CC1)c1ccc(F)cc1 (centres unmarked) [Example 96, pyridin-2-yl 4-{[(4-fluorophenyl)formamido](pyridin-4-yl)methyl}piperidine-1-carboxylate] |  |
| 3.16 µM | O=C(NC(c1ccncc1)C1CCN(C(=O)OC2CCCCC2)CC1)c1ccc(F)cc1 (centres unmarked) [Example 100, cyclohexyl 4-{[(4-fluorophenyl)formamido](pyridin-4-yl)methyl}piperidine-1-carboxylate] |  |
| 3.16 µM | Cc1c(OC(=O)N2CCC([C@@H](C)NC(=O)c3ccc(Cl)s3)CC2)ccnc1F [Example 101, 2-fluoro-3-methylpyridin-4-yl 4-[(1R)-1-[(5-chlorothiophen-2-yl)formamido]ethyl]piperidine-1-carboxylate] |  |
| 10 µM | NC(=O)c1ccc(C(=O)NC(c2ccccc2)C2CCN(C(=O)Oc3ccccc3)CC2)nc1 (centres unmarked) [Example 103, phenyl 4-{[(5-carbamoylpyridin-2-yl)formamido](phenyl)methyl}piperidine-1-carboxylate] |  |
| 0.00158 µM | COc1c(F)cccc1OC(=O)N1CCC([C@@H](CC(C)C)NC(=O)c2ccc(F)cc2)CC1 [Example 106, (R)-3-fluoro-2-methoxyphenyl 4-(1-(4-fluorobenzamido)-3-methylbutyl)piperidine-1-carboxylate] |  |
| 0.00158 µM | Cc1ncnc(C)c1OC(=O)N1CCC([C@@H](CC(C)C)NC(=O)c2ccc(Cl)cc2)CC1 [Example 107, (R)-4,6-dimethylpyrimidin-5-yl 4-(1-(4-chlorobenzamido)-3-methylbutyl)piperidine-1-carboxylate] |  |
| 0.0126 µM | CC(C)CC(NC(=O)c1cccc2cn[nH]c12)C1CCN(C(=O)Oc2ccccc2)CC1 (centres unmarked) [Example 110, phenyl 4-(1-(1H-indazole-7-carboxamido)-3-methylbutyl)piperidine-1-carboxylate] |  |
| 0.0631 µM | COc1ccc([C@@H](NC(=O)c2ccc(Cl)cc2)C2CCN(C(=O)Oc3ccccc3)CC2)cn1 [Example 111, (S)-phenyl 4-((4-chlorobenzamido)(6-methoxypyridin-3-yl)methyl)piperidine-1-carboxylate] |  |
| 0.01 µM | Cc1ncnc(C)c1OC(=O)N1CCC([C@@H](NC(=O)c2ccc(Cl)s2)C2CC2)CC1 [Example 112, (S)-4,6-dimethylpyrimidin-5-yl 4-((5-chlorothiophene-2-carboxamido)(cyclopropyl)methyl)piperidine-1-carboxylate] |  |

The remaining lines, values behind:

| SMILES | IC50 [1, 3] | also measured |
| --- | --- | --- |
| O=C(NC(c1ccncc1)C1CCN(C(=O)Oc2ccncc2)CC1)c1ccc(F)cc1 (centres unmarked) [Example 94, pyridin-4-yl 4-{[(4-fluorophenyl)formamido](pyridin-4-yl)methyl}piperidine-1-carboxylate] | 1 µM |  |
| O=C(N[C@H](CCCO)C1CCN(C(=O)Oc2cccnc2F)CC1)c1ccc(F)cc1 [Example 97, 2-fluoropyridin-3-yl 4-[(1R)-1-[(4-fluorophenyl)formamido]-4-hydroxybutyl]piperidine-1-carboxylate] |  | pIC50 [1]: 5.90 |
| CC(C)(C)OC(=O)N1CCC(C(NC(=O)c2ccccc2)c2ccccc2)CC1 (centres unmarked) [Example 98, tert-butyl 4-[phenyl(phenylformamido)methyl]piperidine-1-carboxylate] | 1.58 µM |  |
| COc1ccc(OC(=O)N2CCC(C(NC(=O)c3ccc(F)cc3)c3ccncc3)CC2)cn1 (centres unmarked) [Example 99, 6-methoxpyridin-3-yl 4-{[(4-fluorophenyl)formamido](pyridin-4-yl)methyl}piperidine-1-carboxylate] |  | PBMC PXC50_ [1, 3]: 5.6 |
| CC(C)(C)OC(=O)N1CCC(C(NC(=O)c2cccnc2)c2ccccc2)CC1 (centres unmarked) [Example 102, tert-butyl 4-{phenyl[(pyridin-3-yl)formamido]methyl}piperidine-1-carboxylate] | 5.01 µM |  |
| Cc1ncccc1OC(=O)N1CCC([C@@H](CC(C)C)NC(=O)c2ccc(Cl)cc2)CC1 [Example 104, (R)-2-methylpyridin-3-yl 4-(1-(4-chlorobenzamido)-3-methylbutyl)piperidine-1-carboxylate] |  | pIC50 [1]: 8.90 |
| COc1ncccc1OC(=O)N1CCC([C@@H](CC(C)C)NC(=O)c2ccc(F)cc2)CC1 [Example 105, (R)-2-methoxypyridin-3-yl 4-(1-(4-fluorobenzamido)-3-methylbutyl)piperidine-1-carboxylate] |  | pIC50 [1]: 8.90 |
| CC(C)C[C@@H](NC(=O)c1cccc2cn[nH]c12)C1CCN(C(=O)Oc2ccccc2)CC1 [Example 109, (R)-phenyl 4-(1-(1H-indazole-7-carboxamido)-3-methylbutyl)piperidine-1-carboxylate] | 0.00631 µM |  |
| NS(=O)(=O)NCCNc1nonc1C(=NO)Nc1ccc(F)c(Br)c1 [INCB204360] |  | conversion of T cells into CD4+FoxP3+ Tregs [2]: blocked the conversion; inhibition of tumor growth (PAN02 pancreatic cells; immunocompetent mice): significant dose-dependent inhibition of tumor growth; effect against the same tumor (PAN02 pancreatic cells; tumor implanted in immune-deficient mice): without effect |
